Values after ≈ are worked out from the molar mass of the structure shown.
Columns and labels:
K. pneumonia ATCC 13883 [1] = experiment: Biofilm formation inhibition, crystal violet assay; format: cell-based, Klebsiella pneumoniae; conditions: at the corresponding MIC
E. coli ATCC 25922 [2] = experiment: Biofilm formation inhibition, crystal violet assay; format: cell-based; conditions: at the corresponding MIC
K. pneumonia ATCC 13883 [3] = experiment: Inhibition zone, MIC and MBC; format: cell-based, Klebsiella pneumoniae
C. albicans ATCC 10231 [4] = experiment: Biofilm formation inhibition, crystal violet assay; format: cell-based, Candida albicans; conditions: at the corresponding MIC
C. albicans ATCC 10231 [5] = experiment: Inhibition zone, MIC and MBC; format: cell-based; conditions: Candida albicans, ATCC10231
E. coli ATCC 25922 [6] = experiment: Inhibition zone, MIC and MBC; format: cell-based
MRSA ATCC 43300 [7] = experiment: Inhibition zone, MIC and MBC; format: cell-based, Staphylococcus aureus
P. aeruginosa ATCC 10145 [8] = experiment: Biofilm formation inhibition, crystal violet assay; format: cell-based, Pseudomonas aeruginosa; conditions: at the corresponding MIC
P. aeruginosa ATCC 10145 [9] = experiment: Inhibition zone, MIC and MBC; format: cell-based, Pseudomonas aeruginosa
MRSA ATCC 43300 [10] = experiment: Biofilm formation inhibition, crystal violet assay; format: cell-based, Staphylococcus aureus; conditions: at the corresponding MIC
[11] = system: Clostridium difficile ATCC BAA 1870; experiment: MIC, broth microdilution; format: cell-based; conditions: Clostridioides difficile, BAA1870, Clostridium difficile ATCC BAA 1870
[12] = system: Escherichia coli BW25113 (wild type); experiment: MIC, broth microdilution; format: cell-based
[13] = system: C. albicans SS5314 (wild type); experiment: MIC, broth microdilution; format: cell-based; conditions: Candida albicans
[14] = system: Enterococcus faecalis ATCC 51299; experiment: MIC, broth microdilution; format: cell-based; conditions: ATCC51299
[15] = system: E. coli JW55031 (TolC mutant); experiment: MIC, broth microdilution; format: cell-based; conditions: Escherichia coli
[16] = system: Neisseria gonorrhoeae 181; experiment: MIC, broth microdilution; format: cell-based; conditions: Neisseria gonorrhoeae, 181, Neisseria gonorrhoeae 181
[17] = system: MRSA NRS384 (MRSA USA300); experiment: MIC, broth microdilution; format: cell-based, methicillin-resistant Staphylococcus aureus; conditions: Staphylococcus aureus
[18] = system: methicillin-resistant Staphylococcus aureus; experiment: Time-kill assay; format: cell-based; conditions: 4 × MIC, 24 hours incubation at 37 °C
human erythrocytes = experiment: Hemolytic activity; format: cell-based; conditions: up to 64 μg mL^−1, 37 °C for 1 h
[19] = Klebsiella pneumoniae, ATCC13883
[20] = Staphylococcus aureus, ATCC43300|MRSA
[21] = Pseudomonas aeruginosa, ATCC10145

Row | SMILES | MIC [11] | MIC [12] | MIC [13] | MIC [14] | MIC [15] | MIC [16] | MIC [17] | other results
1 | CO/N=C(\C(=O)N[C@@H]1C(=O)N2C(C(=O)O)=C(CSc3nc(=O)c(=O)[nH]n3C)CS[C@H]12)c1csc(N)n1 [Ceftriaxone] | – | – | – | – | – | – | – | Inhibition of biofilm formation (%) (K. pneumonia ATCC 13883 [1]): 61.23 ± 0.22%; Inhibition of biofilm formation (%) (E. coli ATCC 25922 [2]): 59.14 ± 0.16%; IZD (K. pneumonia ATCC 13883 [3]; K. pneumonia ATCC 13883, mean ± SD): 34.34 ± 0.47 millimeters; MBC (K. pneumonia ATCC 13883 [3]; [19]): 8 µg/mL (≈ 14.4 µM); MIC (K. pneumonia ATCC 13883 [3]; [19]): 4 µg/mL (≈ 7.21 µM); Inhibition of biofilm formation (%) (C. albicans ATCC 10231 [4]): 82.50 ± 0.14%; MBC (C. albicans ATCC 10231 [5]): 31.2 µg/mL (≈ 56.3 µM); MIC (C. albicans ATCC 10231 [5]): 7.8 µg/mL (≈ 14.1 µM); IZD (E. coli ATCC 25922 [6]; E. coli ATCC 25922, mean ± SD): 36 ± 1.50 millimeters; MBC (E. coli ATCC 25922 [6]; Escherichia coli, ATCC25922): 32 µg/mL (≈ 57.7 µM); MIC (E. coli ATCC 25922 [6]; Escherichia coli, ATCC25922): 16 µg/mL (≈ 28.9 µM); IZD (MRSA ATCC 43300 [7]; MRSA ATCC 43300, mean ± SD): 30.34 ± 1.24 millimeters; MBC (MRSA ATCC 43300 [7]; [20]): 8 µg/mL (≈ 14.4 µM); MIC (MRSA ATCC 43300 [7]; [20]): 8 µg/mL (≈ 14.4 µM); Inhibition of biofilm formation (%) (P. aeruginosa ATCC 10145 [8]): 74.39 ± 0.68%; IZD (P. aeruginosa ATCC 10145 [9]; P. aeruginosa ATCC 10145, mean ± SD): 35 ±1.85 millimeters; MBC (P. aeruginosa ATCC 10145 [9]; [21]): 16 µg/mL (≈ 28.9 µM); MIC (P. aeruginosa ATCC 10145 [9]; [21]): 8 µg/mL (≈ 14.4 µM); Inhibition of biofilm formation (%) (MRSA ATCC 43300 [10]): 73.262 ± 0.21%
2 | CCCC#Cc1ccc(-n2nnc(C(C)=NNC(=N)N)c2C)cc1 [Compound 19, 2-(1-(5-Methyl-1-(4-(pent-1-yn-1-yl)phenyl)-1H-1,2,3-triazol-4-yl)ethylidene)hydrazine-1-carboximidamide] | 32 µg/mL (≈ 98.9 µM) | > 64 µg/mL | 16 µg/mL (≈ 49.5 µM) | 8 µg/mL (≈ 24.7 µM) | 32 µg/mL (≈ 98.9 µM) | 64 µg/mL (≈ 198 µM) | 32 µg/mL (≈ 98.9 µM) | –
3 | CC(=NNC(=N)N)c1nnn(-c2ccc(C#CCC(C)C)cc2)c1C [Compound 20, 2-(1-(5-Methyl-1-(4-(4-methylpent-1-yn-1-yl)phenyl)-1H-1,2,3-triazol-4-yl)ethylidene)hydrazine-1-carboximidamide] | 8 µg/mL (≈ 23.7 µM) | > 64 µg/mL | 8 µg/mL (≈ 23.7 µM) | 8 µg/mL (≈ 23.7 µM) | 8 µg/mL (≈ 23.7 µM) | 32 µg/mL (≈ 94.8 µM) | ≤ 4 µg/mL | –
4 | CCCCC#Cc1ccc(-n2nnc(C(C)=NNC(=N)N)c2C)cc1 [Compound 21, 2-(1-(1-(4-(Hex-1-yn-1-yl)phenyl)-5-methyl-1H-1,2,3-triazol-4-yl)ethylidene)hydrazine-1-carboximidamide] | 16 µg/mL (≈ 47.4 µM) | > 64 µg/mL | 16 µg/mL (≈ 47.4 µM) | 32 µg/mL (≈ 94.8 µM) | 32 µg/mL (≈ 94.8 µM) | > 64 µg/mL | 32 µg/mL (≈ 94.8 µM) | –
5 | CCCCCCC#Cc1ccc(-n2nnc(C(C)=NNC(=N)N)c2C)cc1 [Compound 22, 2-(1-(1-(4-(Oct-1-yn-1-yl)phenyl)-5-methyl-1H-1,2,3-triazol-4-yl)ethylidene)hydrazine-1-carboximidamide] | 64 µg/mL (≈ 175 µM) | > 64 µg/mL | 64 µg/mL (≈ 175 µM) | 64 µg/mL (≈ 175 µM) | 64 µg/mL (≈ 175 µM) | > 64 µg/mL | 64 µg/mL (≈ 175 µM) | –
6 | CC(=NNC(=N)N)c1nnn(-c2ccc(C#CC3CC3)cc2)c1C [Compound 24, 2-(1-(1-(4-(Cyclopropylethynyl)phenyl)-5-methyl-1H-1,2,3-triazol-4-yl)ethylidene)hydrazine-1-carboximidamide] | 64 µg/mL (≈ 199 µM) | > 64 µg/mL | > 64 µg/mL | > 64 µg/mL | 64 µg/mL (≈ 199 µM) | > 64 µg/mL | 64 µg/mL (≈ 199 µM) | –
7 | CC(=NNC(=N)N)c1nnn(-c2ccc(C#CC3CCCC3)cc2)c1C [Compound 25, 2-(1-(1-(4-(Cyclopentylethynyl)phenyl)-5-methyl-1H-1,2,3-triazol-4-yl)ethylidene)hydrazine-1-carboximidamide] | > 64 µg/mL | > 64 µg/mL | > 64 µg/mL | > 64 µg/mL | 64 µg/mL (≈ 183 µM) | 64 µg/mL (≈ 183 µM) | 64 µg/mL (≈ 183 µM) | –
8 | CC(=NNC(=N)N)c1nnn(-c2ccc(C#CC3CCCCC3)cc2)c1C [Compound 26, 2-(1-(1-(4-(Cyclohexylethynyl)phenyl)-5-methyl-1H-1,2,3-triazol-4-yl)ethylidene)hydrazine-1-carboximidamide] | 16 µg/mL (≈ 44 µM) | > 64 µg/mL | 16 µg/mL (≈ 44 µM) | 8 µg/mL (≈ 22 µM) | 64 µg/mL (≈ 176 µM) | > 64 µg/mL | 16 µg/mL (≈ 44 µM) | –
9 | CC(=NNC(=N)N)c1nnn(-c2ccc(C#Cc3ccccc3)cc2)c1C [Compound 30, 2-(1-(5-Methyl-1-(4-(phenylethynyl)phenyl)-1H-1,2,3-triazol-4-yl)ethylidene)hydrazine-1-carboximidamide] | > 64 µg/mL | > 64 µg/mL | 8 µg/mL (≈ 22.4 µM) | 16 µg/mL (≈ 44.8 µM) | 16 µg/mL (≈ 44.8 µM) | > 64 µg/mL | ≤ 4 µg/mL | time to complete bacterial eradication [18]: ≤ 24 h
10 | CC(=NNC(=N)N)c1nnn(-c2ccc(C#Cc3ccc(C)cc3)cc2)c1C [Compound 31, 2-(1-(5-Methyl-1-(4-(p-tolylethynyl)phenyl)-1H-1,2,3-triazol-4-yl)ethylidene)hydrazine-1-carboximidamide] | 2 µg/mL (≈ 5.38 µM) | > 64 µg/mL | 2 µg/mL (≈ 5.38 µM) | 8 µg/mL (≈ 21.5 µM) | 4 µg/mL (≈ 10.8 µM) | > 64 µg/mL | 8 µg/mL (≈ 21.5 µM) | –
11 | OC(Cn1cncn1)(Cn1cncn1)c1ccc(F)cc1F [Fluconazole, reference compound] | – | – | 0.5 µg/mL (≈ 1.63 µM) | – | – | – | – | –
12 | CNC(C)C1CCC(N)C(OC2C(N)CC(N)C(OC3OCC(C)(O)C(NC)C3O)C2O)O1 (stereo not shown) [Gentamicin, reference compound] | – | – | – | – | 0.25 µg/mL (≈ 0.523 µM) | – | – | –
13 | CC(=O)NC[C@H]1CN(c2ccc(N3CCOCC3)c(F)c2)C(=O)O1 [Linezolid, reference compound] | 1 µg/mL (≈ 2.96 µM) | – | > 64 µg/mL | 1 µg/mL (≈ 2.96 µM) | 8 µg/mL (≈ 23.7 µM) | 64 µg/mL (≈ 190 µM) | 1 µg/mL (≈ 2.96 µM) | –
14 | CN(C)[C@@H]1C(O)=C(C(N)=O)C(=O)[C@@]2(O)C(O)=C3C(=O)c4c(O)cccc4[C@@](C)(O)[C@H]3C[C@@H]12 [Tetracycline, reference compound] | – | – | – | – | – | 2 µg/mL (≈ 4.5 µM) | – | –
15 | CN[C@H](CC(C)C)C(=O)N[C@H]1C(=O)N[C@@H](CC(N)=O)C(=O)N[C@H]2C(=O)N[C@H]3C(=O)N[C@H](C(=O)N[C@H](C(=O)O)c4cc(O)cc(O)c4-c4cc3ccc4O)[C@H](O)c3ccc(c(Cl)c3)Oc3cc2cc(c3O[C@@H]2O[C@H](CO)[C@@H](O)[C@H](O)[C@H]2O[C@H]2C[C@](C)(N)[C@H](O)[C@H](C)O2)Oc2ccc(cc2Cl)[C@H]1O [Vancomycin, reference compound] | 1 µg/mL (≈ 0.69 µM) | – | > 64 µg/mL | 64 µg/mL (≈ 44.2 µM) | 16 µg/mL (≈ 11 µM) | > 64 µg/mL | 1 µg/mL (≈ 0.69 µM) | time to complete bacterial eradication [18]: about 24 hours
16 | O=C(O)c1cn(C2CC2)c2cc(N3CCNCC3)c(F)cc2c1=O [ciprofloxacin] | – | – | – | – | – | – | – | hemolytic activity (human erythrocytes): 15%
